Test results as given in US20090275648A1, “MACROCYCLIC GHRELIN RECEPTOR ANTAGONISTS AND INVERSE AGONISTS AND METHODS OF USING THE SAME” (priority 2005, published 2009).

What was measured:
[1] = molecular target: ghrelin receptor (Homo sapiens, UniProt Q92847); assay: Aequorin functional assay (ghrelin receptor), Example 3; assay type: cell-based; set-up: host or cells: CHO-K1 cells co-expressing Gα16 and mitochondrially targeted Aequorin; conditions: antagonist testing vs ghrelin at EC80 (3.7 nM)
Excerpt: The functional activity of compounds of the invention found to bind to the GHS-R1a receptor can be determined using the method described below. (LePoul, E.; et al. Adaptation of aequorin functional assay to high throughput screening. J. Biomol. Screen. 2002, 7, 57-65; Bednarek, M. A.; et al. Structure-function studies on the new growth hormone-releasing peptide ghrelin: minimal sequence of ghrelin necessary for activation of growth hormone secretagogue receptor 1a. J. Med. Chem. 2000, 43, 4370-4376; Palucki, B. L.; et al. Spiro(indoline-3,4′-piperidine) growth hormone secretagogues as ghrelin mimetics. Bioorg. Med. Chem. Lett. 2001, 11, 1955-1957).
Membranes were prepared using AequoScreen™ (EUROSCREEN, Belgium) cell lines expressing the human ghrelin receptor (cell line ES-410-A; receptor accession #60179). This cell line is constructed by transfection of the human ghrelin receptor into CHO-K1 cells co-expressing Gα16 and the mitochondrially targeted Aequorin (Ref #ES-WT-A5). • 1. Ghrelin (reference agonist; Bachem, #H-4864) • 2. Assay buffer: DMEM (Dulbecco's Modified Eagles Medium) containing 0.1% BSA (bovine serum albumin; pH 7.0. • 3. Coelenterazine (Molecular Probes, Leiden, The Netherlands)
Stock solutions of compounds (10 mM in 100% DMSO) were provided frozen on dry ice and stored at −20° C. prior to use. From the stock solution, mother solutions were made at a concentration of 500 μM 20-fold dilution in 26% DMSO. Assay plates were then prepared by appropriate dilution in DMEM medium containing 0.1% BSA. Under these conditions, the maximal final DMSO concentration in the assay was <0.6%.
AequoScreen™ cells were collected from culture plates with Ca^2+ and Mg^2+-free phosphate buffered saline (PBS) supplemented with 5 mM EDTA, pelleted for 2 minutes at 1000×g, re-suspended in DMEM-Ham's F12 containing 0.1% BSA at a density of 5×10^6 cells/ml and incubated overnight at room temperature in the presence of 5 μM coelenterazine. After loading, cells were diluted with assay buffer to a concentration of 5×10^5 cells/ml.
For agonist testing, 50 μl of the cell suspension was mixed with 50 μl of the appropriate concentration of test compound or ghrelin (reference agonist) in 96-well plates (duplicate samples). Ghrelin (reference agonist) is tested at several concentrations concurrently with the test compounds in order to validate the experiment. The emission of light resulting from receptor activation in response to ghrelin or test compounds was recorded using the Hamamatsu FDSS 6000 reader (Hamamatsu Photonics K.K., Japan).
For antagonist testing, an approximate EC80 concentration of ghrelin (i.e. 3.7 nM; 100 μL) was injected onto the cell suspension containing the test compounds (duplicate samples) 15-30 minutes after the end of agonist testing and the consequent emission of light resulting from receptor activation was measured as described in the paragraph above.
Results are expressed as Relative Light Units (RLU). […] For agonist testing, results for each concentration of test compound were expressed as percent activation relative to the signal induced by ghrelin at a concentration equal to the EC80 (i.e. 3.7 nM). EC50, Hill slope and % Emax values are reported.
For antagonist testing, results for each concentration of test compound were expressed as percent inhibition relative to the signal induced by ghrelin at a concentration equal to the EC80.

[2] = molecular target: T1, human ghrelin receptor (hGHS-R1a) (Homo sapiens, UniProt Q92847); assay: Competitive radioligand binding assay (ghrelin receptor), [125I]-ghrelin, GHS-R/HEK 293 membranes; conditions: competition with [125I]-ghrelin
T1 construct: purchased PerkinElmer BioSignal #RBHGHSM, lot#1887; host or cells: HEK-293 cells, stably transfected; membranes
Procedure: The competitive binding assay at the human growth hormone secretagogue receptor (HGHS-R1a) was carried out analogously to assays described in the literature. (Bednarek M A et al. Structure-function studies on the new growth hormone-releasing peptide ghrelin: minimal sequence of ghrelin necessary for activation of growth hormone secretagogue receptor 1a; J. Med. Chem. 2000, 43, 4370-4376; Palucki, B. L. et al. Spiro(indoline-3,4′-piperidine) growth hormone secretagogues as ghrelin mimetics; Bioorg. Med. Chem. Lett. […], 11, 1955-1957).
Membranes (GHS-R/HEK 293) were prepared from HEK-293 cells stably transfected with the human ghrelin receptor (hGHS-R1a). These membranes were provided by PerkinElmer BioSignal (#RBHGHSM, lot#1887) and utilized at a quantity of 0.71 μg/assay point. • 1. [^125]-Ghrelin (PerkinElmer, #NEX-388); final concentration: 0.0070-0.0085 nM • 2. […] Multiscreen Harvest plates-GF/C (Millipore, #MAHFC1H60) • 4. Deep-well polypropylene titer plate (Beckman Coulter, #267006) • 5. TopSeal-A (PerkinElmer, #6005185) • 6. Bottom seal (Millipore, #MATAH0P00) • 7. MicroScint-0 (PerkinElmer, #6013611) • 8. Binding Buffer: 25 mM Hepes (pH 7.4), 1 mM CaCl2, 5 mM MgCl2, 2.5 mM EDTA, 0.4% BSA
Competition experiments were performed in a 300 μl filtration assay format. • 1. 220 μL of membranes diluted in binding buffer • 2. 40 μL of compound diluted in binding buffer • 3.
Compounds were provided frozen on dry ice at a stock concentration of 10 mM diluted in 100% DMSO and stored at −80° C. until the day of testing. On the test day, compounds were allowed to thaw at rt overnight and then diluted in assay buffer according to the desired test concentrations. Under these conditions, the maximal final DMSO concentration in the assay was 0.1%.
In deep-well plates, 220 μL of diluted cell membranes (final concentration: 0.71 μg/well) were combined with 40 μL of either binding buffer (total binding, N=5), 1 μM ghrelin (non-specific binding, N=3) or the appropriate concentration of test compound N=2 for each test concentration). […] Plates were sealed with TopSeal-A, vortexed gently and incubated at rt for 30 min. The reaction was arrested by filtering samples through Multiscreen Harvest plates (pre-soaked in 0.5% polyethyleneimine) using a Tomtec Harvester, washed 9 times with 500 μL of cold 50 mM Tris-HCl (pH 7.4, 4° C.), and then plates were air-dried in a fumehood for 30 min. A bottom seal was applied to the plates prior to the addition of 25 μL of MicroScint-0 to each well. Plates were than sealed with TopSeal-A and counted for 30 sec per well on a TopCount Microplate Scintillation and Luminescence Counter (PerkinElmer) using a count delay of 60 sec. Results were expressed as counts per minute (cpm).
Data were analyzed by GraphPad Prism (GraphPad Software, San Diego, Calif.) using a variable slope non-linear regression analysis.
Dmax values were calculated using the following formula: […]
where total and non-specific binding represent the cpm obtained in the absence or presence of 1 μM ghrelin, respectively.

T1 sequence (Q92847 whole entry): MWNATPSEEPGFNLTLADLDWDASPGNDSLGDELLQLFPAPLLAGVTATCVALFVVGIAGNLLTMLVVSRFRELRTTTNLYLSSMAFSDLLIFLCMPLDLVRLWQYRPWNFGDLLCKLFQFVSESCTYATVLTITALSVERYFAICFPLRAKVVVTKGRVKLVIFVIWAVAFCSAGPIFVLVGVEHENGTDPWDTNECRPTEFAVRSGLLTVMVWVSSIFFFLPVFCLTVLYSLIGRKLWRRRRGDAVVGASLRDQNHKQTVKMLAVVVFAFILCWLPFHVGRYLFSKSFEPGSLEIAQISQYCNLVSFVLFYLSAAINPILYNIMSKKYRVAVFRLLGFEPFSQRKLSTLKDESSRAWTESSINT
ghrelin receptor, sequence (Q92847 whole entry): as above

- IC50 [1]: 1 to 100 nM
- Ki [2]: 1 to 100 nM
Structure (SMILES): CCC(C)[C@@H]1NCCOc2ccccc2/C=C/CNC(=O)[C@@H](Cc2ccccc2)NC(=O)[C@H](C(C)O)N(C)C1=O (some centres unmarked) [Compound 502]
